Results published in PubChem BioAssay (NCI).
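Method: 48-hour compound exposure of cells in 96-well plates, five concentrations, linear interpolation of endpoints. Abbreviation: GI50, concentration required for 50% inhibition of growth. Definition used: TGI = concentration required for complete inhibition of growth.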

Columns and labels:
Assay in all cases: growth of human tumour cells (NCI), 48 h
CCRF-CEM leukemia = test system: CCRF-CEM leukemia
COLO 205 colon = test system: COLO 205 colon
HOP-92 NSCLC = test system: HOP-92 NSCLC
M14 melanoma = test system: M14 melanoma
NCI-H226 lung = test system: NCI-H226 lung
OVCAR-3 ovarian = test system: OVCAR-3 ovarian
OVCAR-5 ovarian = test system: OVCAR-5 ovarian
SNB-19 CNS = test system: SNB-19 CNS
UACC-62 melanoma = test system: UACC-62 melanoma
HL-60(TB) leukemia = test system: HL-60(TB) leukemia

Structure (SMILES)	TGI (CCRF-CEM leukemia)	TGI (COLO 205 colon)	TGI (HOP-92 NSCLC)	TGI (M14 melanoma)	TGI (NCI-H226 lung)	TGI (OVCAR-3 ovarian)	TGI (OVCAR-5 ovarian)	TGI (SNB-19 CNS)	TGI (UACC-62 melanoma)	TGI (HL-60(TB) leukemia)	GI50 (CCRF-CEM leukemia)	GI50 (COLO 205 colon)	GI50 (HL-60(TB) leukemia)	GI50 (HOP-92 NSCLC)	GI50 (M14 melanoma)	GI50 (OVCAR-3 ovarian)	GI50 (OVCAR-5 ovarian)	GI50 (UACC-62 melanoma)
O=c1cc(/C=C/c2ccc(O)c(O)c2)oc(/C=C/c2ccc(O)c(O)c2)c1	7.74 µM	21.6 µM	8.78 µM	16.5 µM	28.1 µM	10.8 µM	44.8 µM	18.2 µM	6.43 µM	–	–	–	–	–	–	–	–	–
CCOP(=O)(OCC)C1C(CO)OC(n2ccc(=O)[nH]c2=O)C1O (configuration not stated)	–	–	> 100 µM	> 100 µM	> 100 µM	> 100 µM	–	> 100 µM	> 100 µM	> 100 µM	–	–	–	–	–	–	–	–
C/C(=C\c1ccccc1)C(=O)CCN1CCOCC1	> 67.2 µM	31 µM	37.1 µM	–	> 65 µM	34.2 µM	33.4 µM	> 62.1 µM	32.6 µM	> 74.3 µM	–	–	–	–	–	–	–	–
C=C(C)CCC(=O)[C@](C)(O)[C@H]1[C@H](O)C[C@@]2(C)[C@@H]3CCc4c(cc(OC5OC(CO)C(O)C(O)C5O)c(O)c4C)C3(C)C(=O)C[C@]12C (some centres not stated)	> 100 µM	> 100 µM	> 100 µM	> 100 µM	> 100 µM	> 100 µM	> 100 µM	> 100 µM	> 100 µM	–	–	–	–	–	–	–	–	–
COC(=O)c1c(C)cccc1/C=C1/Cc2c(C)cccc2C1=O	–	–	> 100 µM	–	> 100 µM	> 100 µM	> 100 µM	–	> 100 µM	> 100 µM	–	–	–	–	–	–	–	–
c1ccc2c(c1)[nH]c1nc3cc(-c4ccc5nc6c(nc5c4)[nH]c4ccccc46)ccc3nc12	> 100 µM	–	> 21.5 µM	> 100 µM	> 100 µM	–	> 100 µM	> 100 µM	> 100 µM	> 100 µM	–	–	–	–	–	–	–	–
O=[N+]([O-])C(=C(N1CCCCC1)N1CCCCC1)/C(Cl)=C(\Cl)Br	42.4 µM	38.7 µM	53.4 µM	59.1 µM	44.6 µM	81.4 µM	–	87.1 µM	28.1 µM	37.9 µM	–	–	–	–	–	–	–	–
Nn1c(CCCCCCCCc2nnc(COc3c(O)ccc4ccccc34)n2N)nnc1COc1c(O)ccc2ccccc12	–	> 100 µM	> 100 µM	> 100 µM	> 100 µM	–	> 100 µM	> 100 µM	> 100 µM	–	–	–	–	–	–	–	–	–
CCOC1CC(=O)c2c(Br)sc(Br)c21 (configuration not stated)	50.8 µM	38.4 µM	35.3 µM	36.2 µM	–	28.5 µM	45.3 µM	51.9 µM	35.1 µM	48.6 µM	–	–	–	–	–	–	–	–
CCCCn1c2c(n(CCCC)c1=S)-c1c(n(CCCC)c(=S)n1CCCC)S[Se][Se]S2	> 46.6 µM	3.87 µM	9.51 µM	31.7 µM	49.4 µM	7.84 µM	6.72 µM	> 76.4 µM	22.3 µM	–	–	–	–	–	–	–	–	–
COC(=O)NN(C(=O)OC)c1c(-c2ccccc2)nc(SC)n1N	> 100 µM	> 100 µM	–	> 100 µM	> 100 µM	> 100 µM	> 100 µM	> 100 µM	> 100 µM	> 100 µM	–	–	–	–	–	–	–	–
O=C1/C(=C/c2ccccc2S)N=C(c2ccccc2)N1c1nc2ccc(Sc3ccccc3)cc2[nH]1	> 100 µM	34.6 µM	> 100 µM	49 µM	–	57.2 µM	> 100 µM	> 100 µM	73.5 µM	52.1 µM	–	–	–	–	–	–	–	–
CN(C)c1ccc(-c2c(C#N)c(S)n(NS(=O)(=O)c3ccccc3)c(=O)c2C#N)cc1	> 100 µM	> 100 µM	> 100 µM	> 100 µM	–	> 100 µM	> 100 µM	> 100 µM	> 100 µM	85.2 µM	–	–	–	–	–	–	–	–
CN(C)C(CN)CC1=C(CC(CN)N(C)C)CCC1 (configuration not stated)	> 100 µM	> 100 µM	> 100 µM	–	> 100 µM	> 100 µM	> 100 µM	> 100 µM	> 100 µM	> 100 µM	–	–	–	–	–	–	–	–
CCOC(=O)C1=C(C(C)=O)CSC(c2ccccc2)=N1	> 100 µM	> 100 µM	> 100 µM	–	> 100 µM	> 100 µM	> 100 µM	> 100 µM	> 100 µM	> 100 µM	–	–	–	–	–	–	–	–
Cc1nn(C(=O)Cc2ccccc2)c2c1C(c1ccccc1O)SC(N)=N2 (configuration not stated)	> 100 µM	> 100 µM	–	> 100 µM	> 100 µM	–	–	> 100 µM	> 100 µM	> 100 µM	–	–	–	–	–	–	–	–
CCOC(=O)c1[nH]cc(C)c1-c1ccn(-c2ccccc2)c1	79.3 µM	> 100 µM	82.8 µM	> 100 µM	> 100 µM	> 100 µM	> 100 µM	–	> 100 µM	–	–	–	–	–	–	–	–	–
Nc1nn2c(C(Br)Br)cc(C(Br)Br)nc2c1[N+](=O)[O-]	0.51 µM	1.94 µM	–	1.81 µM	5.5 µM	–	3.12 µM	3.05 µM	4.06 µM	0.431 µM	–	–	–	–	–	–	–	–
CCCCN1CCN(c2ccc3nc(-c4ccc5nc(-c6ccc(C(F)(F)F)cc6)[nH]c5c4)[nH]c3c2)CC1	0.945 µM	2.95 µM	2.64 µM	2.8 µM	–	1.12 µM	3.32 µM	–	3.11 µM	2.63 µM	289 nM	1450 nM	923 nM	1190 nM	1340 nM	614 nM	1870 nM	1580 nM
O=C(CP(=O)(O)O)c1cccs1	> 100 µM	> 100 µM	> 100 µM	> 100 µM	–	> 100 µM	> 100 µM	> 100 µM	> 100 µM	> 100 µM	–	–	–	–	–	–	–	–
Cc1cc2c(C)cc(=O)[nH]c2cc1N	> 100 µM	> 100 µM	> 100 µM	> 100 µM	> 100 µM	> 100 µM	> 100 µM	> 100 µM	> 100 µM	–	–	–	–	–	–	–	–	–
COC(=O)c1ccccc1/C=C1/Cc2ccccc2C1=O	98.5 µM	> 100 µM	> 100 µM	–	> 100 µM	> 100 µM	> 100 µM	–	> 100 µM	> 100 µM	–	–	–	–	–	–	–	–
